Source: patent publication US20250092001A1, “NOVEL EXCITATORY AMINO ACID GLUTAMATE TRANSPORT MODULATORS AND METHODS USING THE SAME” (Drexel University, priority 2022, published 2025)
Like-named read-outs stand apart in the source and are kept apart here.

Assays:
[1] = tested on: Drosophila model of Huntington's disease; assay: Larval olfactory associative learning test; format: in vivo; settings: Elav x Htt larvae; 3.53 nM GT467, […] GT511
Description: FIG. 7A illustrates certain aspects of a larval olfactory associative learning used to test learning and memory. In FIG. 7A, larvae were trained with either a reinforcer solution containing sucrose (“LIN/SUC”) or a control of distilled water (“LIN/DW”). The trained larvae were then transferred to a dish having test odorant placed on one side and a control on the opposite side. […] The ΔRI (difference between LIN/SUC and LIN/DW performance scores) were then calculated for the high performers (FIG. 7B), low performers (FIG. 7C) and non-performers (FIG. 7D). […] Referring to FIG. 7A, Drosophila larvae were trained with either a reinforcer solution containing sucrose (“LIN/SUC”) or a control of distilled water (“LIN/DW”). The trained larvae were then transferred to a dish having test odorant placed on one side and a control on the opposite side. The ΔRI were then calculated for the high performers (FIG. 7B), low performers (FIG. 7C) and non-performers (FIG. 7D).

[2] = Pharmacokinetics of GT467 and GT511 in rats, plasma and brain (IV, IP, PO); format: in vivo, rat; settings: for AUC0-t: 0 to 24 hrs
Description: Pharmacokinetics (PK) study for GT951 was conducted at Melior Discovery Services (Exton, PA). Fifteen male CD-1 mice 23-50 g was used for the study and the mice were housed 3 per cage. PK studies for GT467 and GT511 were conducted at Piramal Pharma solutions under approved protocols (Pune, India). One hundred and sixty-eight male Wistar rats were used for the study and housed 4 per cage. All animals were maintained on a standard 12 h light cycle and given free access to water and standard rodent chow. Food and water were available ad libitum. Animals were not fasted for any portion of the study and animals were acclimated to the animal care facility for seven days prior to the start of the experiment. The holding room and procedure room temperature was 21-23° C. and humidity was at 40-45% during the experiment (within the normal range of the care facility). All procedures were completed according to Institutional Animal Care and Use Committee (IACUC) approved protocols for housing and for PK studies.
Rats were dosed with the drug and blood and brain samples were collected at 0.5, 1, 2, 4, 8 and 24 h time points. Blood was collected via the sub-lingual vein under anesthesia into tubes containing Na2EDTA as an anticoagulant. Plasma fraction was separated by centrifuging the samples at 10,000 rpm for 5 min and the plasma was transferred to a cryo tube and stored at −80 C. Animals were euthanized and the brain was rapidly removed on ice and weighed. Brain was homogenized in Milli Q water and the homogenate was stored at −80 C until further use. Bioanalysis of the samples was performed using the SCIEX QTRAP 5500 LCMS/MS system with Phenomenex synergy C18 column and carbamazepine as internal standard. A methanol extraction procedure was used to precipitate the proteins in the sample. In addition to the internal standards, drug free plasma and brain samples were prepared for calibration and quantification standards. All samples were within the detectable range of the standard curves. 50 μl of the sample was added to 200 μl of the working solution of the internal standard and centrifuged for 5 min at 10,000 rpm. 60 μl of the supernatant was added to 140 μl of water and mixed well prior to transferring them for quantitative analysis on LCMS.
Specifically, rats were administered with GT467 or GT511 intraperitoneally (IP), intravenously (IV) or orally (PO). The concentration of the administered compounds measured at various timepoints in the plasma are depicted in FIGS. 4A and 4B, the concentrations of the administered compounds measured at various timepoints in the brain are depicted in FIGS. 5A and 5B.
Furthermore, pharmacokinetic parameters such as the peak concentration (Cmax), the time to reach the peak concentration (Tmax), the area under curve from time 0 to T (i.e., 24 hrs) (AUC0-t), the area under curve from time 0 to infinite (AUC0-∞), the half-life (t1/2), the oral clearance (CL/F), the volume of distribution of drug observed (Vz_F_obs), and the percentage of bioavailability (% Bioavailability) were also measured or calculated.

[3] = tested on: Drosophila model of Huntington's Disease (Htt model); assay: Larval locomotion assay in Drosophila Huntington's disease model; format: in vivo; settings: third instar larvae; concentrations as low as two-fold below EC50 and one-fold below EC50
Description: FIG. 6A illustrate certain aspects of a locomotion assay used to assay the locomotive activities. […] FIGS. 6B and 6C depict the results of the locomotion assay results of wild-type Drosophila (“WT”), as well as Drosophila of a Huntington's disease model treated with vehicle (“Veh”) or with various concentrations of two exemplary GLT-1 modulators. […] The Drosophila Htt model is produced by crossing UAS-Htt([…]) male flies with elav-Gal4 virgin female flies. Both fly strains were purchased from Bloomington Drosophila Stock Center (BDSC, Indiana, USA). […] Locomotion assays were conducted by transferring the third instar larvae of flies to agar plates (FIG. 6A) and counting the number of grid lines crossed in 30 seconds.

[4] = tested on: PD rats (unilaterally lesioned rodent model of PD); assay: 5-Choice Serial Reaction Time Task (5CSRTT); format: in vivo, rat; settings: compared to saline
Description: FIG. 12 lists the training schedule for 5CSRTT (5-Choice Serial Reaction Time Task) assay with criteria for success, in accordance with some embodiments.
FIG. 13: Schematic representation of the 5CSRTT assay, in accordance with some embodiments. Rats were trained to receive food reward for a correct nose poke response to a signal light (correct trial shown in arrow connecting 1 and 3). Incorrect trials (the arrows connecting 2/3 to 1) or omissions (the arrow connecting 4 to other boxes) results in time out indicated by darkness with no Cue lights. Trial resets with variable intertrial intervals. Nose pokes made during inter trial interval (ITI) are recorded as premature responses (PMR) that codes for impulsive behavior

[5] = male, Wistar, rat plasma, IP 10 mg/kg
[6] = male, Wistar, rat plasma, IV 5 mg/kg
[7] = male, Wistar, rat plasma, PO 10 mg/kg

COc1ccc(NC(=O)C(=O)NCC(c2ccccc2)N2CCN(C)CC2)cc1 (centres unmarked) [GT467, N1-(4-methoxyphenyl)-N2-(2-(4-methylpiperazin-1-yl)-2-phenylethyl)oxalamide]
Olfactory learning performance (ΔRI) [1]: improved significantly | AUC(0-inf) [2, 5]: 556 ng·h/mL | Cmax [2, 5]: 262 ng/mL | AUC0-t ([2]; male, Wistar, rat plasma, IP 10 mg/kg, read-out: AUC0-t): 537 ng·h/mL | CL/F ([2]; male, Wistar, rat plasma, IP 10 mg/kg, read-out: CL/F (converted)): 302 mL/min/kg | AUC(0-inf) [2, 6]: 321 ng·h/mL | Cmax [2, 6]: 307 ng/mL | AUC0-t ([2]; male, Wistar, rat plasma, IV 5 mg/kg, read-out: AUC0-t): 316 ng·h/mL | AUC(0-inf) [2, 7]: 798 ng·h/mL | Cmax [2, 7]: 204 ng/mL | AUC0-t ([2]; male, Wistar, rat plasma, PO 10 mg/kg, read-out: AUC0-t): 507 ng·h/mL | CL/F ([2]; male, Wistar, rat plasma, PO 10 mg/kg, read-out: CL/F (converted)): 299 mL/min/kg | AUC0-∞ ([2]; rat brain, IP 10 mg/kg): 4442.19 ng·h/g | Tmax ([2]; rat brain, IP 10 mg/kg): 30 min | t1/2 ([2]; rat brain, IP 10 mg/kg): 97.2 min | AUC0-t ([2]; rat brain, IP 10 mg/kg): 4414.35 ng·h/g | AUC0-∞ ([2]; rat brain, IV 5 mg/kg): 2015.59 ng·h/g | Tmax ([2]; rat brain, IV 5 mg/kg): 30 min | t1/2 ([2]; rat brain, IV 5 mg/kg): 61.8 min | AUC0-t ([2]; rat brain, IV 5 mg/kg): 1959.70 ng·h/g | AUC0-∞ ([2]; rat brain, PO 10 mg/kg): 3080.18 ng·h/g | Tmax ([2]; rat brain, PO 10 mg/kg): 52.8 min | t1/2 ([2]; rat brain, PO 10 mg/kg): 109 min | AUC0-t ([2]; rat brain, PO 10 mg/kg): 2816.80 ng·h/g | % Bioavailability ([2]; rat plasma, IP 10 mg/kg): 85.03% | Tmax ([2]; rat plasma, IP 10 mg/kg): 30 min | Vz_F_obs ([2]; rat plasma, IP 10 mg/kg): 26.470969 L/kg | t1/2 ([2]; rat plasma, IP 10 mg/kg): 60.96 min | CL/F ([2]; rat plasma, IV 5 mg/kg): 273.17875 mL/min/kg | Tmax ([2]; rat plasma, IV 5 mg/kg): 30 min | Vz_F_obs ([2]; rat plasma, IV 5 mg/kg): 16.170403 L/kg | t1/2 ([2]; rat plasma, IV 5 mg/kg): 39.1 min | % Bioavailability ([2]; rat plasma, PO 10 mg/kg): 80.34% | Tmax ([2]; rat plasma, PO 10 mg/kg): 52.5 min | Vz_F_obs ([2]; rat plasma, PO 10 mg/kg): 95.358274 L/kg | t1/2 ([2]; rat plasma, PO 10 mg/kg): 285.8 min | Plasma concentration and brain concentration by route of administration ([2]; rats, IP, IV, PO): high plasma concentration and brain concentration | Locomotor ability (grid lines crossed in 30 seconds) [3]: restores the Huntington's disease model flies' locomotor ability | Omissions (OM) [4]: trend towards reducing omissions | Percentage of correct choices (CR), cognitive performance [4]: improves cognitive performance | Premature responses (PMR), impulsivity [4]: reduces impulsivity
